Measured values from patent US9657351B2, “MRNA-based gene expression for personalizing patient cancer therapy with an MDM2 antagonist” (Hoffmann-La Roche Inc., priority 2013, dated 2017).

Tests used:
Assay in all cases: COMPOUND A In Vitro Assay
Assay type in all cases: cell-based
10C9 = conditions: Homo sapiens
Method in brief: (§1)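 Treat human cancer cells with RG7112. Measure response by high-throughput screening. Calculate IC50. Classify: <=1 sensitive, >=10 resistant.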

8305C = conditions: Homo sapiens, Thyroid gland, TP53 Mutant
Method in brief: as §1

CEM/C2 = conditions: Homo sapiens, Lymphocyte T, peripheral blood, TP53 Mutant
Method in brief: as §1

COLO 201 = conditions: Homo sapiens, Intestine, large, colon, TP53 Mutant
Method in brief: as §1

COLO-704 = conditions: Homo sapiens, Ovary, TP53 Wild type
Method in brief: as §1

Calu-1 = conditions: Homo sapiens, Lung, TP53 Wild type
Method in brief: as §1

Calu-6 = conditions: Homo sapiens, Lung, TP53 Mutant
Method in brief: as §1

DLD-1 = conditions: Homo sapiens, Intestine, large, colon, TP53 Mutant
Method in brief: as §1

HARA = conditions: Homo sapiens, Lung, TP53 Mutant
Method in brief: as §1

HCC1599 = conditions: Homo sapiens, Breast, mammary gland, TP53 Mutant
Method in brief: as §1

HMCB = conditions: Homo sapiens, Skin, TP53 Mutant
Method in brief: as §1

IM-9 = conditions: Homo sapiens
Method in brief: as §1

JIMT-1 = conditions: Homo sapiens, Breast, TP53 Mutant
Method in brief: as §1

KATO-III = conditions: Homo sapiens, Stomach, TP53 Mutant
Method in brief: as §1

KYSE-520 = conditions: Homo sapiens, Esophagus, TP53 Mutant
Method in brief: as §1

Kasumi-1 = conditions: Homo sapiens, Lymphocyte, peripheral blood, TP53 Mutant
Method in brief: as §1

LS1034 = conditions: Homo sapiens, LS-1034, Intestine, large, caecum, TP53 Mutant
Method in brief: as §1

ME-180 = conditions: Homo sapiens, Cervix, TP53 Wild type
Method in brief: as §1

MEG-01 = conditions: Homo sapiens, Leukemia, chronic myeloid, TP53 Mutant
Method in brief: as §1

NCI-H1755 = conditions: Homo sapiens, Lung, TP53 Mutant
Method in brief: as §1

NCI-H2170 = conditions: Homo sapiens, Lung, TP53 Mutant
Method in brief: as §1

NCI-H2228 = conditions: Homo sapiens, Lung, TP53 Mutant
Method in brief: as §1

NCI-H520 = conditions: Homo sapiens, Lung, TP53 Mutant
Method in brief: as §1

NCI-H526 = conditions: Homo sapiens, Lung, TP53 Mutant
Method in brief: as §1

NCI-N87 = conditions: Homo sapiens, Stomach, TP53 Mutant
Method in brief: as §1

PLC/PRF/5 = conditions: Homo sapiens, Liver, TP53 Mutant
Method in brief: as §1

SCH = conditions: Homo sapiens, Stomach, TP53 Mutant
Method in brief: as §1

SK-LU-1 = conditions: Homo sapiens, Lung, TP53 Mutant
Method in brief: as §1

SNU-5 = conditions: Homo sapiens, Stomach, TP53 Mutant
Method in brief: as §1

SUM52PE = conditions: Homo sapiens, Breast, TP53 Wild type
Method in brief: as §1

SW620 = conditions: Homo sapiens, SW-620, Intestine, large, colon, TP53 Mutant
Method in brief: as §1

SW837 = conditions: Homo sapiens, Intestine, large, rectum, TP53 Mutant
Method in brief: as §1

SW948 = conditions: Homo sapiens, Intestine, large, colon, TP53 Mutant
Method in brief: as §1

T98G = conditions: Homo sapiens, Brain, TP53 Mutant
Method in brief: as §1

TCCSUP = conditions: Homo sapiens, TCC-SUP, Urinary, bladder, TP53 Mutant
Method in brief: as §1

TT = conditions: Homo sapiens, Thyroid gland, TP53 Wild type
Method in brief: as §1

U266B1 = conditions: Homo sapiens
Method in brief: as §1

VCaP = conditions: Homo sapiens, Prostate, TP53 Mutant
Method in brief: as §1

SMILES: CCOc1cc(C(C)(C)C)ccc1C1=N[C@@](C)(c2ccc(Cl)cc2)[C@@](C)(c2ccc(Cl)cc2)N1C(=O)N1CCN(CCCS(C)(=O)=O)CC1 [COMPOUND A]
- IC50 (10C9; 10C9, Lymphocyte B, TP53 Mutant): 19 µM
- IC50 (10C9; 10C9 cells): 19 µM
- IC50 (8305C): 24 µM
- IC50 (CEM/C2): 9.3 µM
- IC50 (COLO 201): 10 µM
- IC50 (COLO-704): 20 µM
- IC50 (Calu-1): 14 µM
- IC50 (Calu-6): 17 µM
- IC50 (DLD-1): 5.1 µM
- IC50 (HARA): 19 µM
- IC50 (HCC1599): 12 µM
- IC50 (HMCB): 15 µM
- IC50 (IM-9; IM-9, IM-9, Lymphocyte B, peripheral blood, TP53 Wild type): 0.14 µM
- IC50 (IM-9; IM-9, IM-9 cells): 0.1 µM
- IC50 (JIMT-1): 11 µM
- IC50 (KATO-III): 9.7 µM
- IC50 (KYSE-520): 10 µM
- IC50 (Kasumi-1): 21 µM
- IC50 (LS1034): 5.7 µM
- IC50 (ME-180): 9.3 µM
- IC50 (MEG-01): 17 µM
- IC50 (NCI-H1755): 7.8 µM
- IC50 (NCI-H2170): 12 µM
- IC50 (NCI-H2228): 9.8 µM
- IC50 (NCI-H520): 17 µM
- IC50 (NCI-H526): 16 µM
- IC50 (NCI-N87): 12 µM
- IC50 (PLC/PRF/5): 7 µM
- IC50 (SCH): 17 µM
- IC50 (SK-LU-1): 11 µM
- IC50 (SNU-5): 16 µM
- IC50 (SUM52PE): 8.7 µM
- IC50 (SW620): 9.8 µM
- IC50 (SW837): 12 µM
- IC50 (SW948): 19 µM
- IC50 (T98G): 8.3 µM
- IC50 (TCCSUP): 16 µM
- IC50 (TT): 2 µM
- IC50 (U266B1; U266B1, Lymphocyte B, TP53 Mutant): 18 µM
- IC50 (U266B1; U266B1 cells): 18 µM
- IC50 (VCaP): 13 µM
